{
  "source": "patent US20230129326A1",
  "about": "“METHODS TO PREVENT SARS-COV-2 INFECTION AND TREAT COVID-19” (priority 2020, published 2023)",
  "key": {"[1]": {"tested_on": "SARS-CoV-2 pseudovirus entry in ACE2 expressing cells", "assay_type": "cell-based"}, "[2]": {"tested_on": "SARS-CoV-2 isolate USA-WA1/2020", "test": "microbe, parasite or virus in culture", "assay_type": "cell-based", "settings": "Severe acute respiratory syndrome coronavirus 2, A549, read-out: EC50 against SARS-CoV-2 isolate USA-WA1/2020 in A549 overexpressing ACE2"}},
  "data": [
    {"smiles": "CN1CCCC(n2nc(Cc3ccc(Cl)cc3)c3ccccc3c2=O)CC1", "note": "(centres unmarked) [azelastine]", "values": [
      {"measurement": "level of SARS-CoV-2 pseudovirus entry, varying concentrations (FIG. 15A)", "setting": "[1]", "value": "significantly lowered the level of SARS-CoV-2 pseudovirus entry"},
      {"measurement": "viral infection (GFP positive cells per image field)", "setting": "[1]", "value": "substantially reduced viral infection"}
    ]},
    {"smiles": "O=C(O)COCCN1CCN(C(c2ccccc2)c2ccc(Cl)cc2)CC1", "note": "(centres unmarked) [cetirizine]", "values": [
      {"measurement": "level of SARS-CoV-2 pseudovirus entry, varying concentrations (diminazene, cetirizine, labetalol graph)", "setting": "[1]", "value": "significantly lowered the level of SARS-CoV-2 pseudovirus entry"},
      {"measurement": "viral infection (GFP positive cells per image field)", "setting": "[1]", "value": "reduced viral infection"}
    ]},
    {"smiles": "CN(C)CCC(c1ccc(Cl)cc1)c1ccccn1", "note": "(centres unmarked) [chlorpheniramine]", "values": [
      {"measurement": "viral infection (GFP positive cells per image field)", "setting": "[1]", "value": "reduced viral infection"}
    ]},
    {"smiles": "N=C(N)c1ccc(/N=N/Nc2ccc(C(=N)N)cc2)cc1", "note": "[diminazene]", "values": [
      {"measurement": "level of SARS-CoV-2 pseudovirus entry, varying concentrations (diminazene, cetirizine, labetalol graph)", "setting": "[1]", "value": "significantly lowered the level of SARS-CoV-2 pseudovirus entry"},
      {"measurement": "viral infection (GFP positive cells per image field)", "setting": "[1]", "value": "reduced viral infection"}
    ]},
    {"smiles": "CN(C)CCOC(c1ccccc1)c1ccccc1", "note": "[diphenhydramine]", "values": [
      {"measurement": "viral infection (GFP positive cells per image field)", "setting": "[1]", "value": "substantially reduced viral infection"}
    ]},
    {"smiles": "OCCOCCN1CCN(C(c2ccccc2)c2ccc(Cl)cc2)CC1", "note": "(centres unmarked) [hydroxyzine]", "values": [
      {"measurement": "level of SARS-CoV-2 pseudovirus entry, varying concentrations (FIG. 15A)", "setting": "[1]", "value": "significantly lowered the level of SARS-CoV-2 pseudovirus entry"},
      {"measurement": "viral infection (GFP positive cells per image field)", "setting": "[1]", "value": "substantially reduced viral infection"},
      {"measurement": "EC50", "setting": "[2]", "value": 27.3, "unit": "µg/mL"}
    ]}
  ]
}
